Experimental data published in patent publication US20240197666A1, “DITERPENOID COMPOUNDS THAT ACT ON PROTEIN KINASE C (PKC)” (K-Gen Therapeutics, Inc., priority 2021, published 2024).
Like-named read-outs stand apart in the source and are kept apart here.

What was measured:
[1] = tested on: Panc2.13 (Pancreatic); test: Proliferation of Panc2.13; assay type: cell-based; settings: for IC50: read-out: IC50 Panc2.13 (Pancreatic)
Protocol: (§1) The diterpenoid compounds were tested in A549, a non-small cell lung cancer cell line harboring a K-Ras activating mutation. Briefly, A549 cells at a density of 1,000 cells/well were seeded in 96-well plates and incubated at 37° C. for 24 hours. A series of different concentrations of compound stocks (500×) were prepared by 3-fold serial dilution in DMSO. These compounds were further diluted in culture media and then added to cells so that the final DMSO concentration was not exceeding 0.25%. After 96 hours of incubation, 50 μL of CellTiter Glo reagent (Promega) was added to each well and luminescence was measured after 10 minutes using EnVision (PerkinElmer). Luminescence from cells treated with DMSO alone was set as Max and % of inhibition was calculated as follows: Inhibition %=(Max-Sample value)/Max×100. Data was analyzed using XL-fit software (ID Business Solutions Ltd.) and IC50, relative IC50, and % of top inhibition was calculated. Some of the compounds in this disclosure were very potent in blocking proliferation of A549 lung cancer cells at low nM range. In addition, potency of inhibiting A549 proliferation correlated well with its binding affinity to PKCs for this series of compounds. In other words, higher affinity binders had stronger inhibitory effects on A549 proliferation. This further support the notion that activation, rather than inhibition, of certain PKC isoforms is required to block proliferation of cancer cells, some of which may harbor K-Ras mutations. This is in sharp contrast to previous literature and common belief that inhibition of PKC is necessary to block cancer cell growth (Kang, 2014, New Journal of Science, 2014:1-36). Data presented here is in agreement with recent findings that many loss-of-function but not gain-of-function mutations of PKC isoforms have been identified in many human cancers (Antal et al., 2015, Cell, 160:489-502).
(§2) The compounds in this disclosure were tested for their potency in blocking proliferation of a few other cancer cells lines, including K-Ras mutant pancreatic cell lines Panc2.13 and KP-4, leukemia cell line HL-60, and lymphoma cell lines Namalwa and Mino. Similar procedures as in Example 67 were followed. Initial cell numbers seeded in 96-well plates were different for different cell lines: 3000 cells/well for Panc2.13; 800-1000 cells/well for KP-4; 5000 cells/well for HL-60; 5000-10000 cells/well for Namalwa and Mino. A ratio of (IC50 of K101)/(IC50 of compound) (data in parenthesis in Table 5) was used to normalize the compound potency from different assay batches to a common comparator K101.

[2] = tested on: KP-4 (Pancreatic); test: Proliferation of KP-4; assay type: cell-based; settings: read-out: IC50 KP-4 (Pancreatic)
Protocol: as §1, §2

[3] = tested on: PANC1 cells; test: Sphere formation assay; assay type: cell-based; settings: Homo sapiens, PANC-1, read-out: concentration exhibiting at least 50% inhibition on the sphere forming efficiency
Protocol: A group of diterpenoid compounds of the present disclosure were tested to assess their effects on blocking formation of spheres from cancer cell lines such as PANC1, a K-Ras mutant pancreatic cell line. Briefly, PANC1 cells were harvested, re-suspended as single cell suspensions, counted and seeded into Ultra Low Attachment Culture 96-well plate (Corning, Cat #3474) at 100 cells/well in 100 μl of complete media (with 10% FBS) containing 2% Matrigel (Corning, Cat #354234) and DMSO or compounds. Six replicates per condition were seeded. The seeded cells were placed in the 37° C. tissue culture incubator. 10 μl of low serum containing media (with 0.1% FBS) was added to each well every week. Spheres formed after 3-4 weeks were counted. Sphere forming efficiency was expressed as percentage of # of spheres/ # of cells seeded.

[4] = tested on: Namalwa (Lymphoma); test: Proliferation of Namalwa; assay type: cell-based; settings: for IC50: read-out: IC50 Namalwa (Lymphoma)
Procedure, shortened: (§3)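 Cells seeded per line (KP-4 800-1000, Panc2.13 3000, Namalwa and Mino 5000-10000 cells/well), 24 h at 37° C, then 96 h with 3-fold serial dilutions of compound, final DMSO ≤0.25%. CellTiter Glo luminescence read; % inhibition vs DMSO-only max, IC50 fitted. Potency also normalized as ratio to comparator K101 across batches.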

[5] = biological target: T1, C1b domain of human PKCδ (Homo sapiens, UniProt Q05655); test: biochemical; assay type: binding; settings: 3H-PDBu competition
T1 construct: Genes encoding C1b domains of human PKCα, δ, ε, θ, and PKD1 (PKCμ) were synthesized; made in house; host or cells: E. coli BL21(DE3)
T1 sequence (Q05655 230-280 limits assumed): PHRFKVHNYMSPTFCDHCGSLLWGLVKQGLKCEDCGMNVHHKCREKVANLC
Procedure, shortened: (§4)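 Recombinant GST-C1b domains (E. coli-expressed) or full-length human PKC competed against tracer ^3H-PDBu; incubation 10 min at 37°C then 20 min on ice, bound radioligand filter-trapped and scintillation-counted. IC50 fitted and converted to Ki via Cheng-Prusoff using experimentally determined Kd per protein preparation.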

[6] = biological target: T2, C1b domain of human PKCε (Homo sapiens, UniProt Q02156); test: biochemical; assay type: binding; settings: 3H-PDBu competition
T2 construct: Genes encoding C1b domains of human PKCα, δ, ε, θ, and PKD1 (PKCμ) were synthesized; made in house; host or cells: E. coli BL21(DE3)
T2 sequence (Q02156 242-292 limits assumed): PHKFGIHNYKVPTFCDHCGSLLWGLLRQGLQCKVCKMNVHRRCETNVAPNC
Procedure, shortened: as §4

[7] = tested on: Mino (Lymphoma); test: Proliferation of Mino; assay type: cell-based; settings: for IC50: Homo sapiens, MINO, read-out: IC50 Mino (Lymphoma)
Procedure, shortened: as §3

[8] = tested on: HL-60 (Leukemia); test: Proliferation of HL-60; assay type: cell-based; settings: for IC50: Homo sapiens
[9] = tested on: NFκB-driven transcription in HeLa-NFκB luciferase reporter cell line; test: NFκB luciferase reporter assay; settings: Homo sapiens, HeLa, 16 h, read-out: NFκB-luc HeLa cells EC50 (μM)
Protocol: A HeLa-NFκB luciferase reporter cell line (Wuxi Biology) was used to assess a group of PKC activator compounds for their ability to activate NFκB-driven transcription. […] One set of cells was assayed for luciferase activity (Promega, Cat #E1500) and the other set was assayed to determine the number of viable cells (for cell number normalization) using CellTiter-Glo (CTG) kit (Promega, Cat #G7570) according to manufacture's procedures. Normalized data (luciferase value/CTG value) were analyzed using GraphPad Prism5 to calculate EC50 for each compound (see Table 8).
To assess if activation of PKC is required for these compounds to activate NFκB, several PKC inhibitors including broad-spectrum and conventional PKC inhibitors were tested. In the assay described above, PKC inhibitors were added at the same time as the PKC activator compounds.

[10] = tested on: A549 cell line; test: Proliferation of A549 (CellTiter Glo); assay type: cell-based; settings: Homo sapiens, A549, 96 h, read-out: IC50 μM (A549 Cell Line)
Procedure, shortened: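 A549 cells (K-Ras-mutant NSCLC) were seeded at 1,000 cells/well, allowed 24 h to settle, then exposed for 96 h to 3-fold serially diluted compound (final DMSO ≤0.25%). CellTiter Glo luminescence was read, and inhibition was calculated relative to DMSO-only wells. IC50, relative IC50 and % top inhibition came from curve fitting.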

[11] = tested on: phosphorylation of PKCμ, PKCδ and Erk1/2 in A549 lung cancer cells; test: Western blot of activation of PKC and downstream target protein in A549 cells; assay type: cell-based; settings: 30 minutes
Protocol: According to the methods described in patent (WO/2017/083783) A549 lung cancer cells (˜3 million cells) were seeded in 10 cm tissue culture dishes (or ˜1 million cells in 6 cm dish) and grown overnight. Cells were then treated with different drugs at indicated concentrations for 30 minutes. Cell lysate preparation, protein quantitation, SDS-PAGE, and Western blotting procedures are described (WO/2017/083783). β-actin or Vinculin was used as loading controls. Imagequant LAS4000 (GE) was used to scan membranes if secondary antibodies anti-mouse IgG HRP conjugate or anti-rabbit IgG HRP conjugate (dilutions from 1:2000-1:10000) were used. For ProteinSimple Wes system, manufacture's procedure was followed (ProteinSimple 12-230 kDa Wes Separation Module) for sample preparation, loading, running, and data analysis.
Phosphorylation of these sites has been linked to acute activation or catalytic activity of the PKC isoforms and Erk1/2. High level of phosphorylation indicates strong activation.
A subset of the diterpenoid compounds with good binding affinity to novel PKC isoforms and PKCμ was tested at two different concentrations in A549 cells to assess activation of PKCμ, PKCδ, and Erk1/2 by Western blot analysis. In addition to the phospho-specific antibodies described above, an additional phospho-specific antibody P-PKCδ (S299) (Abcam cat #133456) was also used. This antibody has been shown in the literature (Durgan et al., FEBS Lett. 2007, 581(18):3377-81, Novel phosphorylation site markers of protein kinase C delta activation) to be able to detect activation of PKCδ. K-101 (prostratin, 1 μM) was included as reference compounds.

[12] = biological target: T3, C1b domain of human PKCθ (Homo sapiens, UniProt Q04759); test: biochemical; assay type: binding; settings: 3H-PDBu competition
T3 construct: Genes encoding C1b domains of human PKCα, δ, ε, θ, and PKD1 (PKCμ) were synthesized; made in house; host or cells: E. coli BL21(DE3)
T3 sequence (Q04759 231-281 limits assumed): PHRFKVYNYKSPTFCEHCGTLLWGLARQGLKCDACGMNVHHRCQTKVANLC
Procedure, shortened: as §4

[13] = HL-60, read-out: IC50 HL-60 (Leukemia)

Row | Structure (SMILES) | ratio (IC50 of K101)/(IC50 of compound) Panc2.13 [1] | IC50 [1] [nM] | IC50 [2] [nM] | IC50 [3] [nM] | ratio (IC50 of K101)/(IC50 of compound) Namalwa [4] | IC50 [4] [nM] | Ki [6] [nM] | ratio (IC50 of K101)/(IC50 of compound) Mino [7] | IC50 [7] [nM] | ratio (IC50 of K101)/(IC50 of compound) HL-60 [8] | EC50 [9] [µM] | IC50 [10] [µM] | phosphorylation of PKCμ, PKCδ and Erk1/2 ([11]; 3 μM) | IC50 [8, 13] [nM] | other results
1 | CC1=C[C@H]2[C@@]3(O)[C@H](C)C[C@]4(OC(=O)C(C)(C)C)[C@H]([C@@H]3C=C(CO)C[C@]2(O)C1=O)C4(C)C | 6.29 | 100 to 200 | 100 to 200 | ≤ 150 | 1.38 | 30 to 60 | 10 to 30 | 6.82 | 10 to 30 | 5.29 | 0.06 to 0.1 | 0.06 to 0.1 |  |  | Ki [5]: 10 to 30 nM; IC50 ([8]; HL-60, 96 h, read-out: IC50 HL-60 (Leukemia)): 100 to 600 nM
2 | CC1=C[C@H]2[C@@]3(O)[C@H](C)C[C@]4(OC(=O)CCc5ccncc5)[C@H]([C@@H]3C=C(CO)C[C@]2(O)C1=O)C4(C)C |  |  |  |  |  |  |  |  |  |  |  | 1 to 2 | induced phosphorylation |  | 
3 | CC1=C[C@H]2[C@@]3(O)[C@H](C)C[C@]4(OC(=O)CCc5ccccn5)[C@H]([C@@H]3C=C(CO)C[C@]2(O)C1=O)C4(C)C |  |  |  |  |  |  |  |  |  |  |  | 0.6 to 1 | induced phosphorylation |  | 
4 | CC1=C[C@H]2[C@@]3(O)[C@H](C)C[C@]4(OC(=O)[C@@H](N)CCc5ccccc5)[C@H]([C@@H]3C=C(CO)C[C@]2(O)C1=O)C4(C)C | 4.28 | 200 to 600 | 100 to 200 |  | 0.93 |  |  | 3.18 | 10 to 30 | 3.21 | 0.1 to 0.2 | 0.1 to 0.2 |  | 100 to 200 | IC50 ([4]; 96 h): 100 to 600 nM; Ki [12]: 10 to 30 nM
5 | CC1=C[C@H]2[C@@]3(O)[C@H](C)C[C@]4(OC(=O)[C@H](N)Cc5ccccc5)[C@H]([C@@H]3C=C(CO)C[C@]2(O)C1=O)C4(C)C |  |  |  |  |  |  |  |  |  |  |  | 1 to 2 | induced phosphorylation |  | 
6 | CC1=C[C@H]2[C@@]3(O)[C@H](C)C[C@]4(OC(=O)[C@@H](N)Cc5ccc(C(F)(F)F)cc5)[C@H]([C@@H]3C=C(CO)C[C@]2(O)C1=O)C4(C)C | 6.79 | 100 to 200 |  |  | 1.68 | 30 to 60 |  | 6.2 | 10 to 30 | 6.43 | 0.06 to 0.1 | 0.06 to 0.1 |  | 30 to 60 | IC50 ([2]; 96 h): 100 to 600 nM
7 | CC1=C[C@H]2[C@@]3(O)[C@H](C)C[C@]4(OC(=O)[C@@H](N)CCC5CCCCC5)[C@H]([C@@H]3C=C(CO)C[C@]2(O)C1=O)C4(C)C | 20.5 | 30 to 60 | 10 to 30 | ≤ 150 | 7.42 | 1 to 10 | 10 to 30 | 33 | 1 to 10 | 27.7 | 0.01 to 0.03 | 0.01 to 0.03 |  | 10 to 30 | Ki [12]: 10 to 30 nM
8 | CC1=C[C@H]2[C@@]3(O)[C@H](C)C[C@]4(OC(=O)[C@@H](N)C(C)(C)C)[C@H]([C@@H]3C=C(CO)C[C@]2(O)C1=O)C4(C)C |  |  |  | ≤ 1500 |  |  | 60 to 100 |  |  |  |  | 0.2 to 0.6 |  |  | Ki [5]: 10 to 30 nM
9 | CC(=O)O[C@@]12C[C@@H](C)[C@@]3(O)[C@@H](C=C(CO)C[C@]4(O)C(=O)C(C)=C[C@@H]34)[C@@H]1C2(C)C [Compound K101, prostratin, reference compound] |  |  | 200 to 600 |  |  |  |  |  |  |  | 0.2 to 0.6 |  |  |  | phosphorylation of PKCμ, PKCδ and Erk1/2 ([11]; 1 μM): induced high levels of phosphorylation; IC50 ([3]; PANC1, spheres counted after 3-4 weeks): 5500 nM; IC50 ([4]; 96 h): 100 to 600 nM; IC50 ([7]; 96 h): 100 to 600 nM
